Data: PubChem BioAssay (NCI)
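Exposure lasted 48 hours, with cells grown in 96-well plates and compounds tested at five concentrations. Abbreviation: GI50, concentration required for 50% inhibition of growth. TGI is the concentration that stops growth completely.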

Legend:
Experiment in all cases: DTP human tumour cell line panel, 48 h
HCT-15 colon = test system: HCT-15 colon
LOX IMVI melanoma = test system: LOX IMVI melanoma
SF-295 CNS = test system: SF-295 CNS
T-47D breast = test system: T-47D breast
OVCAR-4 ovarian = test system: OVCAR-4 ovarian
HCT-116 colon = test system: HCT-116 colon
SNB-19 CNS = test system: SNB-19 CNS
HS 578T breast = test system: HS 578T breast
HCC-2998 colon = test system: HCC-2998 colon
HT29 colon = test system: HT29 colon

Structure (SMILES)	GI50 (HCT-15 colon) [µM]	TGI (HCT-15 colon) [µM]	GI50 (LOX IMVI melanoma) [µM]	TGI (LOX IMVI melanoma) [µM]	GI50 (SF-295 CNS) [µM]	TGI (SF-295 CNS) [µM]	GI50 (T-47D breast) [µM]	TGI (T-47D breast) [µM]	GI50 (OVCAR-4 ovarian) [µM]	TGI (OVCAR-4 ovarian) [µM]	GI50 (HCT-116 colon) [µM]	TGI (HCT-116 colon) [µM]	GI50 (SNB-19 CNS) [µM]	TGI (SNB-19 CNS) [µM]	GI50 (HS 578T breast) [µM]	TGI (HS 578T breast) [µM]	GI50 (HCC-2998 colon) [µM]	TGI (HCC-2998 colon) [µM]	GI50 (HT29 colon) [µM]	TGI (HT29 colon) [µM]
N#Cc1c(-c2cccs2)c2c(=S)[nH]c(=S)[nH]c2[nH]c1=S	37	> 100	18.2	39.8	46.5	> 100	28.1	98.8	53	> 100	49.5	> 100	75.7	> 100	53.7	90.3	–	–	–	–
Cc1cc2nc3c4cc(Cl)ccc4n(CCN(C)C)c3nc2cc1C	0.821	4.7	1.13	2.37	1.91	3.79	2.98	16.6	1.72	9.08	0.7	2.08	1.92	6.83	2.35	6.99	1.35	2.74	1.13	3.66
O=C(c1ccc2ccccc2c1)c1c(C(F)(F)F)n([O-])c2cc(Cl)c(Cl)cc2[n+]1=O	1.56	2.97	1.17	2.4	1.66	3.06	1.24	3.01	1.54	3.17	1.58	2.92	–	–	1.85	4.15	1.48	2.8	1.49	2.81
Cc1ccc2c(C(C[N+](=O)[O-])c3cccs3)c(-c3ccccc3)[nH]c2c1 (stereo not given)	1.44	7.46	1.78	6.05	1.15	4.54	2.22	27.4	4.45	13.9	1.31	4.56	1.72	7.05	1.57	9.53	3.61	8.01	1.3	6.54
O=C(Nc1nc2ccccc2s1)OCC(F)(F)F	> 100	> 100	> 100	> 100	> 100	> 100	> 100	> 100	> 100	> 100	> 100	> 100	> 100	> 100	> 100	> 100	> 100	> 100	> 100	> 100
CSc1nc(SC)c2c(CN=[N+]=[N-])c(Br)n(Cc3ccccc3)c2n1	–	> 100	–	> 100	–	> 100	–	> 100	–	> 100	–	> 100	–	> 100	–	> 100	–	> 100	–	> 100
N#Cc1c(NC(=O)c2cccc(C(F)(F)F)c2)sc2c1CCC(=O)C2	0.337	1.66	0.369	1.68	0.845	3.88	0.297	1.97	0.298	0.952	0.336	1.56	0.445	2.36	0.542	3.77	1.61	3.37	0.367	2.47
COc1ccc(/C=C/C=C(/C#N)C(N)=S)cc1	25.4	82.8	16	37.4	31	> 100	18.8	76.9	27.9	> 100	15.6	31	26.2	> 100	62.5	> 100	–	–	26	> 100
C[C@@H]1CC[C@H]2C(COCC3=C(C(F)(F)F)O[C@@H]4O[C@@]5(C)CC[C@H]6[C@H](C)CC[C@@H]3[C@@]46OO5)=C(C(F)(F)F)O[C@@H]3O[C@@]4(C)CC[C@@H]1[C@]32OO4	< 0.01	> 100	–	–	0.1	–	< 0.01	> 100	0.0251	> 100	< 0.01	> 100	–	–	0.152	> 100	–	–	< 0.01	> 100
Oc1ccccc1/C=N/Nc1ccc2ccccc2n1	0.838	> 100	–	–	4.44	> 100	3.83	> 100	2.42	18.6	4.51	> 100	5.39	> 100	6.87	76.3	6.59	> 100	9.46	> 100
CC(=O)c1ccc(Nc2cc(-c3ccccc3)nc3c(O)cccc23)cc1	8.31	> 100	14.5	> 100	37.2	> 100	16.6	63.7	18.2	64.7	5.79	90.2	–	–	27	> 100	13.7	36.7	20.7	43
O=C(/C=C/c1ccc(Cl)cc1)c1ccc(Cl)cc1Cl	6.4	15.3	1.15	5.62	10.6	21.4	3.25	22.3	6.14	14	4.74	33.5	13.3	29.5	11.7	25.9	–	–	–	–
Cc1nn(-c2ccc(S(=O)(=O)[O-])cc2)c([O-])c1N=[N+](C)c1ccc(-c2ccc(N=Nc3ccc4c(S(=O)(=O)[O-])cc(S(=O)(=O)[O-])c(N)c4c3[O-])c([O-])c2)cc1[O-].[Cu+2].[Cu+2].[Na+]	> 100	> 100	–	–	> 100	> 100	> 100	> 100	> 100	> 100	> 100	> 100	> 100	> 100	> 100	> 100	> 100	> 100	> 100	> 100
